According to patent US20080299234A1, “Medication Comprising Plant Extracts as a Lipase Inhibitor” (priority 2005, published 2008):

Assays:
[1] = molecular target: T1, pancreatic lipase (Homo sapiens, UniProt P16233); conditions: application of Orlistat; cited from earlier work
T1 sequence (P16233 17-465): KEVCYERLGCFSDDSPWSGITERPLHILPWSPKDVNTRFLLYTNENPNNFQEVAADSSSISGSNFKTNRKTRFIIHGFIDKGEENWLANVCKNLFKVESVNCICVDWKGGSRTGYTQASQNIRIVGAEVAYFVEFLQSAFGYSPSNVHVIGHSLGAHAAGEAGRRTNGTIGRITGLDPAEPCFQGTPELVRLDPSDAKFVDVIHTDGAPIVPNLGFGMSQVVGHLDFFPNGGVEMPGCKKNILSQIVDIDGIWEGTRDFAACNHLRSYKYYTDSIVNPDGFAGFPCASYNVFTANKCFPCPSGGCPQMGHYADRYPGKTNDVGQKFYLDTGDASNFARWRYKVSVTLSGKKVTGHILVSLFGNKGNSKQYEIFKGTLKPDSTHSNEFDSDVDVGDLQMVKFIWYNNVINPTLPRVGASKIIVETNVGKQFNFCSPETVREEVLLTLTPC

[2] = system: postprandial triglyceride values in the plasma of rats; assay: lipid stress test in rats with Triton WR-1339 (postprandial rise in plasma triglyceride values); format: in vivo
Method: For further examination and verification of the results determined in vitro, the triglyceride-reducing effect was tested in an animal experiment.
To this end a lipid stress test was carried out in rats with Triton WR-1339 to inhibit the triglyceride elimination from the blood and the postprandial rise in plasma triglyceride values over four hours The following test substances were used:
Orlistat as positive control.
As result, the rise in postprandial triglyceride values in the plasma of rats after administration of the test substances was recorded. […] They include linseed, sunflower, marigold and propolis.

[3] = system: triglyceride; conditions: Tsujita et al. 1996; Kagawa et al. 1996, 1998; cited from earlier work

Row | Molecule | undesired side effects [1] | triglyceride values as a function of the time after food intake (in words) ([2]; rat plasma after lipid stress test, experimental period of four hours (FIG. 2)) | triglyceride-reducing (literature) [3] | triglyceride-reducing effect (in words) ([2]; rats, lipid stress test with Triton WR-1339, postprandial plasma triglyceride rise (FIG. 1))
1 | CCCCCCCCCCC[C@@H](C[C@@H]1OC(=O)[C@H]1CCCCCC)OC(=O)[C@H](CC(C)C)NC=O [Orlistat, Tetrahydrolipstatin] | oily or fatty stools | the lowest | – | –
2 | VVYP (UniProt P02070 32-35, looked up, fragment) [fragment 32-35 of the β-chain of bovine haemoglobin] | – | – | triglyceride-reducing | –
3 | protamine | – | – | triglyceride reducing | no triglyceride-reducing effect was found
